Test results taken from US7671061B2, “Methods and compositions for treating pain” (Hydra Biosciences, Inc., priority 2005, dated 2010).

Molecular target: T1, hTRPA1 (Homo sapiens, UniProt O75762, K186N)
T1 construct: expressed in transfected cells; host or cells: HEK293/TREx (Invitrogen), induced with tetracycline
Assay: High throughput Ca2+ fluorescence (Fluo4) assay, AITC stimulation
Type: cell-based
Conditions: Table 1; read-out: hTRPA1 Fluo4 IC50
Source text: The assay depended on detection of the rise in intracellular Ca^2+ concentration ([Ca^2+]i) following channel activation in cells inducibly expressing the TRPA1 channel. Ca^2+ rise was quantified with the use of fluorescent Ca^2+ indicators that were loaded into cells and thereafter indicated the [Ca^2+]i. Ca^2+ influx followed activation of the TRPA1 channel. Compounds inhibiting the [Ca^2+]i rise were considered hits for further investigation.
These cells were maintained in the growth medium recommended by the manufacturer supplemented with 100 μg/ml hygromycin to promote retention of the TRPA1 construct. After growing to near confluency, cells were plated at a density of ˜25,000 cells/well in 384 well CellBind plates (Corning) in the presence of 1 μg/ml tetracycline, and allowed to grow for 20-30 hrs. A nearly confluent monolayer resulted. Cells were then loaded with Ca^2+ dye: Fura-2/AM or Fluo4/AM was added to the wells to a final concentration of 2 μM or 1 μM, respectively, and incubated for 80 min or 60 min, respectively, at room temperature. […] Frames were acquired at a rate of 0.2 Hz. During the assay, the plates were continuously […], with pipette mixing of wells following addition of each reagent. For the screening assay, 13 μl of a diluted stock (at 50 μM) was added to each well for 2 minutes following the collection of a short (4 frame) baseline. […] Data was collected for ˜3 minutes following addition of AITC, where the fluorescent intensity (for Fluo4) and the F340/F380 ratio (for Fura-2) were proportional to the [Ca^2+]i. Negative controls consisted of HEK293/TREx TRPA1 cells exposed to AITC, but no compound. […] These controls defined a screening window, and “hits” were defined as those compounds inhibiting the fluorescence response by at least 40%. IC50 values were determined for compounds defined as “hits.” The Fluo4 cell-based fluorescence assay was used to determine the intracellular Ca^2+ concentration in the presence of varying drug concentration. […] Compounds were tested in triplicate at all concentrations. Standard software was used to fit IC50 curves.

T1 sequence (O75762 whole entry K186N): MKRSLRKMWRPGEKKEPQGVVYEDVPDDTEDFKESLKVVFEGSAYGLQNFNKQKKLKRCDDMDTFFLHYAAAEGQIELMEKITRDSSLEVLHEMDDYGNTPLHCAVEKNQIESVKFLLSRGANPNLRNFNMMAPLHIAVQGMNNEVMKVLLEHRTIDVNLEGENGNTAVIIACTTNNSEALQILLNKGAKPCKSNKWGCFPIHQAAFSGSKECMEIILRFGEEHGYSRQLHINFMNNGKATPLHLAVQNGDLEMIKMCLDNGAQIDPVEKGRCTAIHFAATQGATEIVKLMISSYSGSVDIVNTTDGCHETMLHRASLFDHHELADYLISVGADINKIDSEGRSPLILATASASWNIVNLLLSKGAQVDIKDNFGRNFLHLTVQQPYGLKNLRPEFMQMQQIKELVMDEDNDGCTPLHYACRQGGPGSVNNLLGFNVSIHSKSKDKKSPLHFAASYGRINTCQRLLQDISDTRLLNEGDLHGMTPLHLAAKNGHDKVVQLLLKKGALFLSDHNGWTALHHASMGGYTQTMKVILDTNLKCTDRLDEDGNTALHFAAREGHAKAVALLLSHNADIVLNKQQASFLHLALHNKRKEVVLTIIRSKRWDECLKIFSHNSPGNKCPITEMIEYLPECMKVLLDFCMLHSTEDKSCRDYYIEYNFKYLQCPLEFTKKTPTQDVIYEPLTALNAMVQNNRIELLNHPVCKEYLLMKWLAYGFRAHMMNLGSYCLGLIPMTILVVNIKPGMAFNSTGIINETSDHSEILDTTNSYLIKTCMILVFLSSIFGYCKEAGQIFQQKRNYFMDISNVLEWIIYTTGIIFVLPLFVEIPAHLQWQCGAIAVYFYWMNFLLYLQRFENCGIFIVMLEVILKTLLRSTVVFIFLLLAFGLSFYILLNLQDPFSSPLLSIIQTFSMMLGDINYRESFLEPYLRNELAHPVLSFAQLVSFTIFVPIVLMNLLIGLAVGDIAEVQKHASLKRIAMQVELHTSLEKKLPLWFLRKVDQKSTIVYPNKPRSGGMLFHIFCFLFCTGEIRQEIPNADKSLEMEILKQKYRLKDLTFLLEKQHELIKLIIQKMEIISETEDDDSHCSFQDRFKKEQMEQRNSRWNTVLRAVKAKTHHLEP

Structure (SMILES) | IC50
CC1=C(C(=O)N2CCOCC2)C(c2ccc(F)cc2)NC(=O)N1 (stereo not drawn) | > 10 µM
CC1=C(C(=O)N2CCOCC2)C(c2cccc(Br)c2)NC(=O)N1 (stereo not drawn) | > 10 µM
CCN(CC)C(=O)C1=C(C)NC(=S)NC1c1ccc(F)cc1 (stereo not drawn) | > 10 µM
CCOC(=O)C1=C(C)NC(=S)NC1c1ccc(O)c(OC)c1 (stereo not drawn) | ≤ 10 µM
CCOC(=O)C1=C(C)NC(=S)NC1c1ccc(N(C)C)cc1 (stereo not drawn) | > 10 µM
COC(=O)C1=C(C)NC(=O)NC1c1ccccc1OC (stereo not drawn) | > 10 µM
CCOC(=O)C1=C(C)NC(=S)NC1c1ccccc1 (stereo not drawn) | > 10 µM
COC(=O)C1=C(C)NC(=O)NC1c1ccc(O)c(OC)c1 (stereo not drawn) | > 10 µM
CC1=C(C(=O)Nc2ccccc2)C(c2ccc(F)cc2)NC(=S)N1 (stereo not drawn) | ≥ 30 µM
CC1=C(C(=O)Nc2ccccc2)C(c2ccccc2)NC(=S)N1 (stereo not drawn) | ≥ 30 µM
CC1=C(C(=O)Nc2ccccc2)C(c2ccc(Br)cc2)NC(=S)N1 (stereo not drawn) | > 10 µM
CCOC(=O)C1=C(C)NC(=S)NC1c1ccc(OC)c(OC)c1 (stereo not drawn) | > 10 µM
CCOC(=O)C1=C(c2ccccc2)NC(=S)NC1c1ccccc1 (stereo not drawn) | ≤ 10 µM
COC(=O)C1=C(C)NC(=O)NC1c1ccc(O)cc1 (stereo not drawn) | > 10 µM
CCOc1ccccc1C1NC(=O)NC(C)=C1C(=O)OC (stereo not drawn) | > 10 µM
CCOC(=O)C1=C(C)NC(=O)NC1c1ccc(O)cc1 (stereo not drawn) | > 10 µM
CCOC(=O)C1=C(C)NC(=S)NC1c1cc(OC)ccc1OC (stereo not drawn) | > 10 µM
CCOC(=O)C1=C(C)NC(=O)NC1c1ccc(OCC)cc1 (stereo not drawn) | > 10 µM
CC1=C(C(=O)OC(C)C)C(c2ccccc2F)NC(=S)N1 (stereo not drawn) | > 10 µM
CCOC(=O)C1=C(c2ccccc2)N(C)C(=O)NC1c1ccccc1F (stereo not drawn) | > 10 µM
CCOC(=O)C1=C(c2ccccc2)NC(=O)NC1c1ccccc1Cl (stereo not drawn) | > 10 µM
CC1=C(C(=O)OC(C)C)C(c2ccccc2Cl)NC(=S)N1 (stereo not drawn) | ≤ 10 µM
CC1=C(C(=O)OCC(C)C)C(c2ccccc2C(F)(F)F)NC(=O)N1 (stereo not drawn) | ≤ 5 µM
CC1=C(C(=O)OC2CCC(C)CC2)C(c2ccc(N(C)C)cc2)NC(=O)N1 (stereo not drawn) | > 10 µM
C=CCOC(=O)C1=C(C)NC(=S)NC1c1ccccc1OCC (stereo not drawn) | > 10 µM
CC1=C(C(=O)Nc2ccc(Br)cc2)C(c2ccccc2)NC(=O)N1C (stereo not drawn) | > 10 µM

Structure (SMILES) | IC50
CC1=C(C(=O)OCCC(C)C)C(c2ccc(Cl)c(Cl)c2)NC(=O)N1 (stereo not drawn) | > 10 µM
CC1=C(C(=O)OCCc2ccccc2)C(c2ccccc2)NC(=O)N1 (stereo not drawn) | > 10 µM
CCOC(=O)C1=C(C)N(C)C(=S)NC1c1ccccc1 (stereo not drawn) | > 10 µM
CCOC(=O)C1=C(c2ccc(N(C)C)cc2)NC(=O)NC1c1ccccc1 (stereo not drawn) | ≤ 1 µM
COc1ccc(C2NC(=O)N(C)C(C)=C2C(=O)Nc2ccccc2C)cc1 (stereo not drawn) | > 10 µM
CC1=C(C(=O)OCc2ccccc2)C(c2ccccc2F)NC(=O)N1 (stereo not drawn) | > 10 µM
CCCOC(=O)C1=C(C)NC(=O)NC1c1ccc(N(CC)CC)cc1 (stereo not drawn) | > 10 µM
CC1=C(C(=O)OCc2ccc(C)cc2)C(c2ccc(F)cc2)NC(=O)N1 (stereo not drawn) | > 10 µM
CC1=C(C(=O)OC(C)C)C(c2cccc(Cl)c2)NC(=O)N1 (stereo not drawn) | > 10 µM
CC1=C(C(=O)OCCc2ccccc2)C(c2ccc(Cl)cc2)NC(=O)N1 (stereo not drawn) | ≤ 5 µM
CC1=C(C(=O)OC2CCCCC2)C(c2ccc(F)cc2)NC(=O)N1 (stereo not drawn) | > 10 µM
C=CCOC(=O)C1=C(C)NC(=O)NC1c1ccc(F)cc1 (stereo not drawn) | > 10 µM
CC1=C(C(=O)OC(C)C)C(c2cccc(Br)c2)NC(=O)N1 (stereo not drawn) | > 10 µM
CC1=C(C(=O)OC(C)C)C(c2ccc(Cl)cc2)NC(=O)N1 (stereo not drawn) | > 10 µM
CCCCCOC(=O)C1=C(C)NC(=O)NC1c1cccc(Br)c1 (stereo not drawn) | > 10 µM
CCC(C)OC(=O)C1=C(C)NC(=O)NC1c1ccccc1Cl (stereo not drawn) | > 10 µM
C=CCOC(=O)C1=C(C)NC(=O)NC1c1ccc(N(CC)CC)cc1 (stereo not drawn) | > 10 µM
C=CCOC(=O)C1=C(C)NC(=O)NC1c1ccc(C)cc1 (stereo not drawn) | ≤ 5 µM
CC1=C(C(=O)OCC(F)(F)F)C(c2ccc(N(C)C)cc2)NC(=O)N1 (stereo not drawn) | > 10 µM
CCCOC(=O)C1=C(C)NC(=O)NC1c1cccc2ccccc12 (stereo not drawn) | > 10 µM
CCCCCOC(=O)C1=C(C)NC(=S)NC1c1ccccc1 (stereo not drawn) | > 10 µM
C=CCOC(=O)C1=C(C)NC(=O)NC1c1ccc(CC)cc1 (stereo not drawn) | > 10 µM
CC1=C(C(=O)OCC2CCCCC2)C(c2ccccc2F)NC(=O)N1 (stereo not drawn) | > 10 µM
CCCCOC(=O)C1=C(C)NC(=O)NC1c1ccc(C)cc1 (stereo not drawn) | > 10 µM
CC1=C(C(=O)OCCc2ccccc2)C(c2ccc(F)cc2)NC(=O)N1 (stereo not drawn) | > 10 µM
CC1=C(C(=O)OCC(Cl)(Cl)Cl)C(c2ccccc2)NC(=O)N1 (stereo not drawn) | > 10 µM

Structure (SMILES) | IC50
CC1=C(C(=O)OCc2ccc(C)cc2)C(c2ccccc2)NC(=O)N1 (stereo not drawn) | > 10 µM
CCCOC(=O)C1=C(C)NC(=O)NC1c1cccc(Cl)c1 (stereo not drawn) | > 10 µM
CC1=C(C(=O)OCC(F)(F)F)C(c2ccc(Br)cc2)NC(=O)N1 (stereo not drawn) | > 10 µM
CCc1ccc(C2NC(=O)NC(C)=C2C(=O)OC2CCCC2)cc1 (stereo not drawn) | > 10 µM
CC1=C(C(=O)OCc2ccccc2)C(c2ccc(F)cc2)NC(=O)N1 (stereo not drawn) | > 10 µM
CC1=C(C(=O)OCc2ccc(C)cc2)C(c2ccccc2F)NC(=O)N1 (stereo not drawn) | > 10 µM
COC(C)OC(=O)C1=C(C)NC(=O)NC1c1cccc(Cl)c1Cl (stereo not drawn) | > 10 µM
CC1=C(C(=O)OC2CCCCCC2)C(c2cccc(Cl)c2)NC(=O)N1 (stereo not drawn) | > 10 µM
CC1=C(C(=O)OCc2ccccc2)C(c2cccc(Cl)c2)NC(=O)N1 (stereo not drawn) | > 10 µM
CC1=C(C(=O)OC(C)C(C)C)C(c2ccc(C)cc2)NC(=O)N1 (stereo not drawn) | > 10 µM
CC1=C(C(=O)OCc2ccc(C)cc2)C(c2ccc(N(C)C)cc2)NC(=O)N1 (stereo not drawn) | > 10 µM
CCOC(=O)C1=C(C)NC(=O)NC1c1ccccc1C (stereo not drawn) | > 10 µM
COC(=O)C1=C(C)N(C)C(=O)N(C)C1c1cccc([N+](=O)[O-])c1 (stereo not drawn) | > 10 µM
CCOC(=O)C1=C(C)NC(=O)NC1c1ccc(F)cc1F (stereo not drawn) | > 10 µM
CCOC(=O)C1=C(C)N(CC)C(=O)NC1c1ccccc1Cl (stereo not drawn) | ≥ 20 µM
CCN1C(=O)NC(c2ccc(Br)cc2)C(C(=O)OC(C)C)=C1C (stereo not drawn) | ≤ 5 µM
CCCC1=C(C(=O)OCC)C(c2ccc(Br)cc2)NC(=O)N1 (stereo not drawn) | ≥ 30 µM
CCOC(=O)C1=C(c2ccccc2)NC(=O)NC1c1ccc(CC)cc1 (stereo not drawn) | ≤ 10 µM
CCCC1=C(C(=O)OCC)C(c2ccc(CC)cc2)NC(=O)N1 (stereo not drawn) | > 10 µM
CCCC1=C(C(=O)OCC)C(c2ccc(Cl)cc2Cl)NC(=O)N1 (stereo not drawn) | > 10 µM
CC1=C(C(=O)OCC(C)C)C(c2ccc([N+](=O)[O-])cc2)NC(=O)N1C (stereo not drawn) | ≤ 5 µM
CC1=C(C(=O)OC2CCCC2)C(c2ccccc2Cl)NC(=O)N1C (stereo not drawn) | > 10 µM
COCCOC(=O)C1=C(C)NC(=S)NC1c1ccc(F)cc1 (stereo not drawn) | ≤ 5 µM
COCCOC(=O)C1=C(C)NC(=S)NC1c1ccc(Br)cc1 (stereo not drawn) | > 10 µM
COCCOC(=O)C1=C(C)NC(=S)NC1c1cccc(Br)c1 (stereo not drawn) | > 10 µM
CCOC(=O)C1=C(C)NC(=O)NC1c1ccc(SC)cc1 (stereo not drawn) | > 10 µM

Structure (SMILES) | IC50
COC(=O)C1=C(C)N(C)C(=S)NC1c1ccc(OC)cc1 (stereo not drawn) | ≥ 30 µM
COc1ccc(C2NC(=S)N(C)C(C)=C2C(=O)Nc2ccccc2)cc1 (stereo not drawn) | > 10 µM
COC(=O)C1=C(C)N(C)C(=S)NC1c1cccc(OC)c1 (stereo not drawn) | ≥ 20 µM
COC(=O)C1=C(C)N(C)C(=S)NC1c1ccc(Cl)cc1 (stereo not drawn) | ≤ 10 µM
CC1=C(C(=O)OC(C)C)C(c2ccc(C(C)C)cc2)NC(=O)N1 (stereo not drawn) | > 10 µM
CCOC(=O)C1=C(C)NC(=S)NC1c1ccc(OC(C)C)cc1 (stereo not drawn) | > 10 µM
COC(=O)C1=C(C)NC(=S)NC1c1ccc(OC(C)C)cc1 (stereo not drawn) | > 10 µM
CC1=C(C(=O)N2CCOCC2)C(c2cccc(Cl)c2)NC(=O)N1 (stereo not drawn) | > 10 µM
CC1=C(C(=O)OC(C)C)C(c2ccc(Cl)cc2)NC(=S)N1 (stereo not drawn) | > 10 µM
COC(=O)C1=C(C)NC(=S)NC1c1cc(OC)ccc1Br (stereo not drawn) | ≤ 5 µM
CCOC(=O)C1=C(C)N(C)C(=O)NC1c1cccc(Cl)c1Cl (stereo not drawn) | > 10 µM
COC(=O)C1=C(C)N(C)C(=O)NC1c1cccc(Cl)c1 (stereo not drawn) | > 10 µM
CCOC(=O)C1=C(C)NC(=S)NC1c1ccc(CC)cc1 (stereo not drawn) | > 10 µM
COC(=O)C1=C(C)N(C)C(=O)NC1c1ccc(C(C)(C)C)cc1 (stereo not drawn) | > 10 µM
CCOC(=O)C1=C(C)NC(=S)NC1c1cc(OC)ccc1Br (stereo not drawn) | > 10 µM
CCOC(=O)C1=C(C)NC(=S)NC1c1cc(C)ccc1C (stereo not drawn) | > 10 µM
COC(=O)C1=C(C)N(C)C(=O)NC1c1cc(Br)ccc1F (stereo not drawn) | > 10 µM
CCC(C)OC(=O)C1=C(C)NC(=O)NC1c1ccc(C(F)(F)F)cc1 (stereo not drawn) | ≤ 10 µM
CCCC1=C(C(=O)OCC)C(c2cccc([N+](=O)[O-])c2)NC(=O)N1C (stereo not drawn) | > 10 µM
COC(=O)C1=C(C)NC(=O)NC1c1cc(C)ccc1C (stereo not drawn) | > 10 µM
COC(=O)C1=C(C)NC(=O)NC1c1ccc(C(C)(C)C)cc1 (stereo not drawn) | > 10 µM
COC(=O)C1=C(C)NC(=O)NC1c1ccc2ccccc2c1 (stereo not drawn) | > 10 µM
CC1=C(C(=O)OC(C)(C)C)C(c2cccc(Br)c2)NC(=O)N1 (stereo not drawn) | > 10 µM
CC1=C(C(=O)OC(C)(C)C)C(c2ccccc2Cl)NC(=O)N1 (stereo not drawn) | > 10 µM
